The source of these data is patent US20070049593A1 (priority 2004, published 2007).

pIC50: −log10 of the molar value. Structures can show the parent of a compound that is named as a salt.

This test deals with T1, HCV polymerase (Hepatitis C virus genotype 1b, UniProt P26663).
T1 construct: a region encoding NS5B (J Virol 1991 March, 65(3), 1105-13, 544 amino acids after deletion of 47 amino acids on the C-terminal); 6xHis (C); made in house; host or cells: Escherichia coli
Put plainly: biochemical. Further details: species or system HCV BK strain. In short, it runs like this: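 Recombinant HCV BK-strain NS5B (C-terminal 47 aa deleted, His6-tagged, E. coli), 0.5 μg/ml, run with 5 μg/ml in vitro-transcribed RNA template (polyU/3′X), ATP/GTP/CTP 50 μM, UTP 2 μM plus [3H]UTP, pH 7.5, 25° C, 90 min. TCA-precipitated RNA counted by scintillation; IC50 from activity with vs without compound.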

T1 sequence (P26663 2420-2963): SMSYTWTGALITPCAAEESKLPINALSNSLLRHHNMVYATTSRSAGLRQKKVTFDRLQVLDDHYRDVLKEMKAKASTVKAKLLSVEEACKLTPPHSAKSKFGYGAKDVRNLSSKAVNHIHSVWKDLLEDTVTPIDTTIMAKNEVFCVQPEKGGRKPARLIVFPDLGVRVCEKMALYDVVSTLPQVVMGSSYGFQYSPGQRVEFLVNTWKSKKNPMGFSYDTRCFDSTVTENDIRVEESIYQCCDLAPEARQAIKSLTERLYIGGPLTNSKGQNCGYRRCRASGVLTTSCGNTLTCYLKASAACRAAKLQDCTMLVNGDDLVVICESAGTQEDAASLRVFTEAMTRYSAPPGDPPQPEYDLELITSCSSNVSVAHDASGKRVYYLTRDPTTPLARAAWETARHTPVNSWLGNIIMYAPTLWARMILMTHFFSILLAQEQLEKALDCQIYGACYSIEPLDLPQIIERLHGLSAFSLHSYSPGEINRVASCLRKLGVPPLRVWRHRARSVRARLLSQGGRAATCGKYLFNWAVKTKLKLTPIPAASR

One may read the pIC50 as the IC50 on a negative log10 scale, so that one unit is a factor of ten. In turn, `O=C(O)c1ccc2c(C3CCCCC3)c3n(c2c1)CCN(CCN1CCCCC1)c1cc(C(F)(F)F)ccc1-3` [Example 1-159, 13-cyclohexyl-5-[2-(piperidin-1-yl)ethyl]-3-trifluoromethyl-6,7-dihydro-5H-benzo[5,6][1,4]diazepino[7,1-a]indole-10-carboxylic acid dihydrochloride] had a pIC50 above 7.00.
The molecule `CCN1CCN(CCN2CCn3c(c(C4CCCCC4)c4ccc(C(=O)O)cc43)-c3ccc(F)cc32)CC1` [Example 1-160, 13-cyclohexyl-5-[2-(4-ethylpiperazin-1-yl)ethyl]-3-fluoro-6,7-dihydro-5H-benzo[5,6][1,4]diazepino[7,1-a]indole-10-carboxylic acid trihydrochloride] gave a pIC50 above 7.00.
As to `CC(C)(C)OC(=O)N1CCCCC1CCN1CCn2c(c(C3CCCCC3)c3ccc(C(=O)O)cc32)-c2ccccc21` (centres unmarked) [Example 1-161, 5-[2-(1-tert-butoxycarbonylpiperidin-2-yl)ethyl]-13-cyclohexyl-6,7-dihydro-5H-benzo[5,6][1,4]diazepino[7,1-a]indole-10-carboxylic acid monohydrochloride], the pIC50 was above 7.00.
Molecule `CCN1CCN(C(=O)CN2CCn3c(c(C4CCCCC4)c4ccc(C(=O)O)cc43)-c3ccc(F)cc32)CC1` [Example 1-162, 13-cyclohexyl-5-[2-(4-ethylpiperazin-1-yl)-2-oxoethyl]-3-fluoro-6,7-dihydro-5H-benzo[5,6][1,4]diazepino[7,1-a]indole-10-carboxylic acid dihydrochloride] showed a negative logarithm of the IC50 (pIC50) above 7.00.
`O=C(O)c1ccc2c(C3CCCCC3)c3n(c2c1)CCN(CCc1ccccn1)c1ccccc1-3` [Example 1-163, 13-cyclohexyl-5-[2-(pyridin-2-yl)ethyl]-6,7-dihydro-5H-benzo[5,6][1,4]diazepino[7,1-a]indole-10-carboxylic acid dihydrochloride] showed a pIC50 above 7.00.
On to `COCCN1CCn2c(c(C3CCCCC3)c3ccc(C(=O)O)cc32)-c2ccccc21` [Example 1-164, 13-cyclohexyl-5-(2-methoxyethyl)-6,7-dihydro-5H-benzo[5,6][1,4]diazepino[7,1-a]indole-10-carboxylic acid monohydrochloride], for which the pIC50 is above 7.00.
Take `O=C(O)c1ccc2c(C3CCCCC3)c3n(c2c1)CCN(CCC1CCCNC1)c1ccccc1-3` (centres unmarked) [Example 1-165, 13-cyclohexyl-5-[2-(piperidin-3-yl)ethyl]-6,7-dihydro-5H-benzo[5,6][1,4]diazepino[7,1-a]indole-10-carboxylic acid dihydrochloride]: the negative logarithm of the IC50 (pIC50) is above 7.00.
Molecule `CCN1CCCC(CCN2CCn3c(c(C4CCCCC4)c4ccc(C(=O)O)cc43)-c3ccccc32)C1` (centres unmarked) [Example 1-166, 13-cyclohexyl-5-[2-(1-ethylpiperidin-3-yl)ethyl]-6,7-dihydro-5H-benzo[5,6][1,4]diazepino[7,1-a]indole-10-carboxylic acid dihydrochloride] showed a negative-log IC50 (pIC50) above 7.00.
The molecule `CC(C)(C)OC(=O)N1CCCC(CCN2CCn3c(c(C4CCCCC4)c4ccc(C(=O)O)cc43)-c3ccccc32)C1` (centres unmarked) [Example 1-167, 5-[2-(1-tert-butoxycarbonylpiperidin-3-yl)ethyl]-13-cyclohexyl-6,7-dihydro-5H-benzo[5,6][1,4]diazepino[7,1-a]indole-10-carboxylic acid] gave a pIC50 of 6.00 to 7.00.
For `Cc1ccc2c(c1)N(CCN1CCCOCC1)CCn1c-2c(C2CCCCC2)c2ccc(C(=O)O)cc21` [Example 1-168, 13-cyclohexyl-3-methyl-5-[2-(1,4-oxazepan-4-yl)ethyl]-6,7-dihydro-5H-benzo[5,6][1,4]diazepino[7,1-a]indole-10-carboxylic acid], the pIC50 is above 7.00.
For the molecule `O=C(O)c1ccc2c(C3CCCCC3)c3n(c2c1)CCN(CCN1CCCOCC1)c1cc(Cl)ccc1-3` [Example 1-169, 3-chloro-13-cyclohexyl-5-[2-(1,4-oxazepan-4-yl)ethyl]-6,7-dihydro-5H-benzo[5,6][1,4]diazepino[7,1-a]indole-10-carboxylic acid monohydrochloride], the pIC50 was above 7.00.
In the case of `O=C(O)c1ccc2c(C3CCCCC3)c3n(c2c1)CCN(CCN1CCCOCC1)c1cc(F)ccc1-3` [Example 1-170, 13-cyclohexyl-3-fluoro-5-[2-(1,4-oxazepan-4-yl)ethyl]-6,7-dihydro-5H-benzo[5,6][1,4]diazepino[7,1-a]indole-10-carboxylic acid dihydrochloride], the pIC50 was above 7.00.
Molecule `O=C(O)c1ccc2c(C3CCCCC3)c3n(c2c1)CCN(CC(=O)N1CCC(F)(F)CC1)c1ccccc1-3` [Example 1-171, 13-cyclohexyl-5-[2-(4,4-difluoropiperidin-1-yl)-2-oxoethyl]-6,7-dihydro-5H-benzo[5,6][1,4]diazepino[7,1-a]indole-10-carboxylic acid monohydrochloride] had a pIC50 above 7.00.
The value for `O=C(O)c1ccc2c(C3CCCCC3)c3n(c2c1)CCN(CCN1CCC(C(F)(F)F)CC1)c1ccccc1-3` [Example 1-172, 13-cyclohexyl-5-[2-(4-trifluoromethylpiperidin-1-yl)ethyl]-6,7-dihydro-5H-benzo[5,6][1,4]diazepino[7,1-a]indole-10-carboxylic acid dihydrochloride] was above 7.00; that for `CCCN1CCC(CCN2CCn3c(c(C4CCCCC4)c4ccc(C(=O)O)cc43)-c3ccccc32)CC1` [Example 1-173, 13-cyclohexyl-5-[2-(1-propylpiperidin-4-yl)ethyl]-6,7-dihydro-5H-benzo[5,6][1,4]diazepino[7,1-a]indole-10-carboxylic acid dihydrochloride] was above 7.00.
The value for `O=C(O)c1ccc2c(C3CCCCC3)c3n(c2c1)CCN(CCN1CCC(F)(F)CC1)c1ccccc1-3` [Example 1-174, 13-cyclohexyl-5-[2-(4,4-difluoropiperidin-1-yl)ethyl]-6,7-dihydro-5H-benzo[5,6][1,4]diazepino[7,1-a]indole-10-carboxylic acid dihydrochloride] was above 7.00; that for `CCN1CCC(=C(F)CN2CCn3c(c(C4CCCCC4)c4ccc(C(=O)O)cc43)-c3ccccc32)CC1` [Example 1-175, 13-cyclohexyl-5-[2-(1-ethylpiperidin-4-ylidene)-2-fluoroethyl]-6,7-dihydro-5H-benzo[5,6][1,4]diazepino[7,1-a]indole-10-carboxylic acid dihydrochloride] was above 7.00.
The value for `O=C(O)c1ccc2c(C3CCCCC3)c3n(c2c1)CCN(CCN1CCCCC1)c1ccc(Cl)cc1-3` [Example 1-176, 2-chloro-13-cyclohexyl-5-[2-(piperidin-1-yl)ethyl]-6,7-dihydro-5H-benzo[5,6][1,4]diazepino[7,1-a]indole-10-carboxylic acid dihydrochloride] was above 7.00.
For the molecule `O=C(O)c1ccc2c(C3CCCCC3)c3n(c2c1)CCN(CCC1CCCCN1)c1ccccc1-3` (centres unmarked) [Example 1-177, 13-cyclohexyl-5-[2-(piperidin-2-yl)ethyl]-6,7-dihydro-5H-benzo[5,6][1,4]diazepino[7,1-a]indole-10-carboxylic acid dihydrochloride], the pIC50 is above 7.00.
`CCN1CCCCC1CCN1CCn2c(c(C3CCCCC3)c3ccc(C(=O)O)cc32)-c2ccccc21` (centres unmarked) [Example 1-178, 13-cyclohexyl-5-[2-(1-ethylpiperidin-2-yl)ethyl]-6,7-dihydro-5H-benzo[5,6][1,4]diazepino[7,1-a]indole-10-carboxylic acid dihydrochloride]: the pIC50 is above 7.00.
On to `CSc1ccc2c(c1)N(CCN1CCCCC1)CCn1c-2c(C2CCCCC2)c2ccc(C(=O)O)cc21` [Example 1-179, 13-cyclohexyl-3-methylsulfanyl-5-[2-(piperidin-1-yl)ethyl]-6,7-dihydro-5H-benzo[5,6][1,4]diazepino[7,1-a]indole-10-carboxylic acid dihydrochloride], for which the negative-log IC50 (pIC50) was above 7.00.
In the case of `NC(=O)c1ccc2c(C3CCCCC3)c3n(c2c1)CCN(CCN1CCCCC1)c1cc(Cl)ccc1-3` [Example 1-180, 3-chloro-13-cyclohexyl-5-[2-(piperidin-1-yl)ethyl]-6,7-dihydro-5H-benzo[5,6][1,4]diazepino[7,1-a]indole-10-carboxamide dihydrochloride], the pIC50 is above 7.00.
The value for `O=C(O)c1ccc2c(C3CCCCC3)c3n(c2c1)CCN(CCc1cccnc1)c1ccccc1-3` [Example 1-181, 13-cyclohexyl-5-[2-(pyridin-3-yl)ethyl]-6,7-dihydro-5H-benzo[5,6][1,4]diazepino[7,1-a]indole-10-carboxylic acid dihydrochloride] was above 7.00; that for `O=C(O)c1ccc2c(C3CCCCC3)c3n(c2c1)CCN(CCc1ccncc1)c1ccccc1-3` [Example 1-182, 13-cyclohexyl-5-[2-(pyridin-4-yl)ethyl]-6,7-dihydro-5H-benzo[5,6][1,4]diazepino[7,1-a]indole-10-carboxylic acid dihydrochloride] was above 7.00.
On to `O=C(O)c1ccc2c(C3CCCCC3)c3n(c2c1)CCN(CCN1C[C@H]2CCCC[C@H]2C1)c1ccccc1-3` [Example 1-183, 13-cyclohexyl-5-[(3aS,7aR)-2-(octahydroisoindol-2-yl)ethyl]-6,7-dihydro-5H-benzo[5,6][1,4]diazepino[7,1-a]indole-10-carboxylic acid dihydrochloride], for which the pIC50 was above 7.00.
With `O=C(O)c1ccc2c(C3CCCCC3)c3n(c2c1)CCN(CCN1CCC2(CCCC2)CC1)c1ccccc1-3` [Example 1-184, 5-[2-(8-azaspiro[4.5]decan-8-yl)ethyl]-13-cyclohexyl-6,7-dihydro-5H-benzo[5,6][1,4]diazepino[7,1-a]indole-10-carboxylic acid dihydrochloride] the figure was above 7.00.
